According to PubChem BioAssay (NCI):
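Briefly, cells in 96-well plates were exposed to five compound concentrations for 48 h, and endpoints were estimated by linear interpolation. GI50: concentration for 50% inhibition of growth. TGI denotes the concentration required for complete inhibition of growth.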

Columns and labels:
Assay in all cases: NCI-60 cell line screen, 48 h
DU-145 prostate = system: DU-145 prostate
EKVX NSCLC = system: EKVX NSCLC
HCT-15 colon = system: HCT-15 colon
HS 578T breast = system: HS 578T breast
K-562 leukemia = system: K-562 leukemia
MDA-MB-231 breast = system: MDA-MB-231 breast
NCI-H522 lung = system: NCI-H522 lung
OVCAR-8 ovarian = system: OVCAR-8 ovarian
RPMI-8226 leukemia = system: RPMI-8226 leukemia
SK-OV-3 ovarian = system: SK-OV-3 ovarian

| Compound | GI50 (DU-145 prostate) | TGI (DU-145 prostate) | GI50 (EKVX NSCLC) | TGI (EKVX NSCLC) | GI50 (HCT-15 colon) | TGI (HCT-15 colon) | GI50 (HS 578T breast) | TGI (HS 578T breast) | GI50 (K-562 leukemia) | TGI (K-562 leukemia) | GI50 (MDA-MB-231 breast) | TGI (MDA-MB-231 breast) | GI50 (NCI-H522 lung) | TGI (NCI-H522 lung) | GI50 (OVCAR-8 ovarian) | TGI (OVCAR-8 ovarian) | GI50 (RPMI-8226 leukemia) | TGI (RPMI-8226 leukemia) | GI50 (SK-OV-3 ovarian) | TGI (SK-OV-3 ovarian) |
| --- | --- | --- | --- | --- | --- | --- | --- | --- | --- | --- | --- | --- | --- | --- | --- | --- | --- | --- | --- | --- |
| CC/C=C\CCC/C=C1/C(=O)C=C[C@@H]1C/C=C\CCCC(=O)O | 11.3 µM | 23.8 µM | 4.02 µM | 14 µM | 1.93 µM | 4.52 µM | 13.7 µM | 59.3 µM | 2.5 µM | 37.9 µM | 5.55 µM | 22.5 µM | 2.02 µM | 4.78 µM | 2.96 µM | 9.87 µM | 3.28 µM | 11 µM | 14.4 µM | 31.3 µM |
| O=C(/C=C/c1cccc(Cl)c1)c1ccc(Cl)cc1Cl | 9.59 µM | 23 µM | 12.8 µM | 34.4 µM | 12.2 µM | > 50 µM | 13.2 µM | 40.1 µM | 2.86 µM | > 50 µM | 13 µM | 34.7 µM | 1.85 µM | 15.6 µM | 12 µM | 36.9 µM | 1.68 µM | > 50 µM | 9.91 µM | 21.7 µM |
| Oc1c(CN2CCCC2)cc(COCc2ccccc2)c2cccnc12 | 3.4 µM | 16.8 µM | 2.01 µM | 15.6 µM | 0.152 µM | 2.9 µM | 8.71 µM | 58.7 µM | 2.62 µM | 20.7 µM | 4.98 µM | 20.1 µM | 2.62 µM | 9.97 µM | 2.53 µM | 12 µM | 3.84 µM | 19.4 µM | 2.02 µM | 9.27 µM |
| COc1ccc(/C=C\c2cc(OC)c(OC)c(OC)c2)c(NS(=O)(=O)c2ccc(C)cc2)c1O | 0.0399 µM | – | 0.0644 µM | > 100 µM | 0.0395 µM | > 81.6 µM | 0.0483 µM | > 100 µM | 0.0409 µM | > 100 µM | 0.0516 µM | 29.9 µM | 0.0377 µM | > 35 µM | 0.0498 µM | > 100 µM | 0.0502 µM | 23.9 µM | 0.685 µM | > 100 µM |
| CC(=O)OC1CCC2(C)C(=CC(C3C=C4CC(OC(C)=O)CCC4(C)C4=C3C3CC5OC6(CCC(C)CO6)C(C)C5C3(C)CC4)C3=C2CCC2(C)C3CC3OC4(CCC(C)CO4)C(C)C32)C1 (centres undefined) | – | 27.2 µM | – | 37.1 µM | – | 28.4 µM | – | 17 µM | – | 15.2 µM | – | 32 µM | – | 19.4 µM | – | 23.1 µM | – | 16.2 µM | – | 32.7 µM |
| COc1ccc2c3c(c(OCCCN(C)C)nc2c1)-c1ccc(Cl)cc1C3=O | 6.08 µM | 19.1 µM | 7.17 µM | 22.7 µM | 1.79 µM | 10.6 µM | 13.3 µM | 34.3 µM | 2.38 µM | > 100 µM | 4.26 µM | 23.7 µM | 7.1 µM | 24.1 µM | 5.98 µM | 34.6 µM | 15.4 µM | 56.1 µM | 12.2 µM | 26.7 µM |
